{"source": "patent US7041685B2", "about": "“Substituted 3-aryl-5-aryl-[1,2,4]-oxadiazoles and analogs as activators of caspases and inducers of apoptosis and the use thereof” (Cytovia, Inc., priority 2001, dated 2006)", "key": {"MX-1 cells": {"test_system": "MX-1 cells", "test": "Clonogenic survival of MX-1 solid tumor cells", "type": "cell-based", "conditions": "Homo sapiens, MX1, 48 h treatment, colonies counted after 7-10 days, read-out: IC50 of colony forming ability (clonogenic survival)", "procedure": "MX-1 cells were grown according to the conditions recommended by American Type Culture Collection. In a well of a 96 well plate, 30,000 cells were seeded and treated with compound at the indicated concentrations for 48 h in a 5% CO2—95% humidity incubator at 37° C. Control wells were treated with the same amount of solvent (DMSO) as the compound samples. After the indicated treatment time, the supernatant was removed to a sterile culture tube and the wells washed with phosphate buffered saline, and the adherent cells trypsinized for 5 min. The trypsinzed cells were added to the culture supernatant, cells were collected (1,200 rpm, 10 min), washed with phosphate buffered saline, and resupended in fresh media. The cells were counted for trypan blue negative cells, and the cells diluted with fresh media to 1,000 cells/mL. To a well of a 24-well plate, 0.1 mL of the cell suspension was added along with 1 mL of fresh media (cell suspensions were passed through a 22G needle several times just before plating to form single cell suspensions). Plates are incubated in a 5% CO2—95% humidity incubator at 37° C. for 7-10 days. Colonies are counted when the sizes reached greater than 50 cells per colony. […] Colonies are rinsed with water and the colonies counted and the fraction surviving expressed as the percentage of the number of control colonies."}, "T-47D [1]": {"test_system": "T-47D", "test": "Caspase cascade activation assay (fluorogenic N-(Ac-DEVD)-N'-ethoxycarbonyl-R110 substrate) in T-47D cells", "type": "cell-based, Human", "conditions": "48 h incubation; for Caspase Activity Ratio: ratio of net RFU of compound to control; for EC50: Homo sapiens, T47D, read-out: Caspase Potency EC50", "procedure": "Human breast cancer cell lines T-47D and ZR-75-1 were grown according to media component mixtures designated by American Type Culture Collection +10% FCS (Invitrogen Corporation), in a 5% CO2—95% humidity incubator at 37° C. T-47D and ZR-75-1 cells were maintained at a cell density between 50 and 80% confluency at a cell density of 0.1 to 0.6×10^6 cells/mL. Cells were harvested at 600×g and resuspended at 0.65×10^6 cells/mL into appropriate media +10% FCS. An aliquot of […] of cells was added to a well of a […] microtiter plate containing 2.5 μl of a 10% DMSO in RPMI-1640 media solution containing 0.16 to 100 μM of 5-(3-chloro-thiophen-2-yl)-3-(4-trifluoromethyl-phenyl)-[1,2,4]-oxadiazole or other test compound (0.016 to 10 μM final). An aliquot of 22.5 μL of cells was added to a well of a […] microtiter plate containing 2.5 μl of a 10% DMSO in RPMI-1640 media solution without test compound as the control sample. The samples were mixed by agitation and then incubated at 37° C. for 48 h in a 5% CO2—95% humidity incubator. After incubation, the samples were removed from the incubator and 25 μL of a solution containing 14 μM of N-(Ac-DEVD)-N′-ethoxycarbonyl-R110 (SEQ ID No.:1) fluorogenic substrate (Maxim, Inc.; WO99/18856), 20% sucrose (Sigma), 20 mM DTT (Sigma), 200 mM NaCl (Sigma), 40 mM Na PIPES buffer pH 7.2 (Sigma), and 500 μg/mL lysolecithin (Calbiochem) was added. The samples were mixed by agitation and incubated at room temperature. Using a fluorescent plate reader (Model SpectraMax Gemini, Molecular Devices), an initial reading (T=0) was made approximately 1-2 min after addition of the substrate solution, employing excitation at 485 nm and emission at 530 nm, to determine the background fluorescence of the control sample. After the 3 h incubation, the samples were read for fluorescence as above (T=3 h).\nThe Relative Fluorescence Unit values (RFU) were used to calculate the sample readings as follows: RFU(T=3 h)−Control RFU(T=0)=Net RFU(T=3 h)\nThe activity of caspase cascade activation was determined by the ratio of the net RFU value for 5-(3-chloro-thiophen-2-yl)-3-(4-trifluoromethyl-phenyl)-[1,2,4]-oxadiazole or other test compound to that of control samples. The EC50 (nM) was determined by a sigmoidal dose-response calculation (Prism 2.0, GraphPad Software Inc.)."}, "ZR-75-1": {"test_system": "ZR-75-1", "test": "Cell proliferation assay (GI50), ZR-75-1", "type": "cell-based", "conditions": "Homo sapiens, ZR75-1, 48 h", "procedure": "[The source words this procedure for another cell line and reports this cell line under the same test.] (§1) T-47D and SKBr-3 cells were grown and harvested as in Example 121. An aliquot of 90 μL of cells (2. 2×10^4 cells/mL) was added to a well of a 96-well microtiter plate containing 10 μl of a 10% DMSO in RPMI-1640 media solution containing 1 nM to 100 μM of 5-(3-chloro-thiophen-2-yl)-3-(4-trifluoromethyl-phenyl)-[1,2,4]-oxadiazole (0.1 nM to 10 μM final). An aliquot of 90 μL of cells was added to a well of a 96-well microtiter plate containing 10 μL of a 10% DMSO in RPMI-1640 media solution without compound as the control sample for maximal cell proliferation (AMax). The samples were mixed by agitation and then incubated at 37° C. for 48 h in a 5% CO2—95% humidity incubator. After incubation, the samples were removed from the incubator and 20 μL of CellTiter 96 AQUEOUS One Solution Cell Proliferation™ reagent (Promega) was added. The samples were mixed by agitation and incubated at 37° C. for 2-4 h in a 5% CO2—95% humidity incubator. Using an absorbance plate reader (Model 1420 Wallac Instruments), an initial reading (T=0) was made approximately 1-2 min after addition of the solution, employing absorbance at 490 nm. This determines the possible background absorbance of the test compounds. No absorbance for 5-(3-chloro-thiophen-2-yl)-3-(4-trifluoromethyl-phenyl)-[1,2,4]-oxadiazole was found at 490 nm. After the 2-4 h incubation, the samples were read for absorbance as above (ATest). […]"}, "SW-620": {"test_system": "SW-620", "test": "Cell proliferation assay (GI50), SW-620", "type": "cell-based", "conditions": "Homo sapiens; SW-620, non-breast cancer cell line, 48 h"}, "Panc-1": {"test_system": "Panc-1", "test": "Cell proliferation assay (GI50), Panc-1", "type": "cell-based", "conditions": "Homo sapiens; Panc-1, non-breast cancer cell line, 48 h", "procedure": "[The source words this procedure for another cell line and reports this cell line under the same test.] as §1"}, "K562": {"test_system": "K562", "test": "Cell proliferation assay (GI50), K562", "type": "cell-based", "conditions": "Homo sapiens; K562, non-breast cancer cell line, 48 h", "procedure": "[The source words this procedure for another cell line and reports this cell line under the same test.] as §1"}, "PC-3": {"test_system": "PC-3", "test": "Cell proliferation assay (GI50), PC-3", "type": "cell-based", "conditions": "Homo sapiens; PC-3, non-breast cancer cell line, 48 h", "procedure": "[The source words this procedure for another cell line and reports this cell line under the same test.] as §1"}, "MX-1": {"test_system": "MX-1", "test": "Cell proliferation assay (GI50), MX-1", "type": "cell-based", "conditions": "Homo sapiens, MX1; MX-1, breast cancer cell line, 48 h", "procedure": "[The source words this procedure for another cell line and reports this cell line under the same test.] as §1"}, "T-47D [2]": {"test_system": "T-47D", "test": "Cell proliferation assay (GI50), T-47D", "type": "cell-based", "conditions": "Homo sapiens, T47D, 48 h", "procedure": "as §1"}, "DLD-1": {"test_system": "DLD-1", "test": "Cell proliferation assay (GI50), DLD-1", "type": "cell-based", "conditions": "Homo sapiens; DLD-1, colon cancer cell line, 48 h"}, "SK-Br-3": {"test_system": "SK-Br-3", "test": "Cell proliferation assay (GI50), SK-Br-3", "type": "cell-based", "conditions": "Homo sapiens; SK-Br-3, breast cancer cell line, 48 h", "procedure": "as §1"}, "NCI-H23": {"test_system": "NCI-H23", "test": "Cell proliferation assay (GI50), NCI-H23", "type": "cell-based", "conditions": "Homo sapiens; NCI-H23, non-breast cancer cell line, 48 h", "procedure": "[The source words this procedure for another cell line and reports this cell line under the same test.] as §1"}}}
{"smiles": "FC(F)(F)c1ccc(-c2noc(-c3sccc3Cl)n2)cc1", "note": "[Example 4, 5-(3-Chloro-thiophen-2-yl)-3-(4-trifluoromethyl-phenyl)-[1,2,4]-oxadiazole]", "values": [{"measurement": "IC50", "setting": "MX-1 cells", "result": "~1050", "unit": "nM"}, {"measurement": "Caspase Activity Ratio", "setting": "T-47D [1]", "result": 4.2}, {"measurement": "EC50", "setting": "T-47D [1]", "result": 5350, "unit": "nM"}]}
{"smiles": "Clc1ccc(-c2noc(-c3sccc3Cl)n2)cc1", "note": "[Example 1, 3-(4-Chloro-phenyl)-5-(3-chloro-thiophen-2-yl)-[1,2,4]-oxadiazole]", "values": [{"measurement": "GI50", "setting": "ZR-75-1", "result": 200, "unit": "nM"}, {"measurement": "GI50", "setting": "SW-620", "result": "> 10000", "unit": "nM"}, {"measurement": "GI50", "setting": "Panc-1", "result": "> 10000", "unit": "nM"}, {"measurement": "Caspase Activity Ratio", "setting": "T-47D [1]", "result": 16.9}, {"measurement": "EC50", "setting": "T-47D [1]", "result": 3610, "unit": "nM"}, {"measurement": "GI50", "setting": "K562", "result": "> 10000", "unit": "nM"}, {"measurement": "GI50", "setting": "PC-3", "result": "> 10000", "unit": "nM"}, {"measurement": "GI50", "setting": "MX-1", "result": 300, "unit": "nM"}, {"measurement": "GI50", "setting": "T-47D [2]", "result": 250, "unit": "nM"}, {"measurement": "GI50", "setting": "DLD-1", "result": 35, "unit": "nM"}, {"measurement": "GI50", "setting": "SK-Br-3", "result": 20, "unit": "nM"}, {"measurement": "GI50", "setting": "NCI-H23", "result": "> 10000", "unit": "nM"}]}
{"smiles": "Fc1ccc(-c2noc(-c3sccc3Cl)n2)cc1", "note": "[Example 5, 5-(3-Chloro-thiophen-2-yl)-3-(4-fluoro-phenyl)-[1,2,4]-oxadiazole]", "values": [{"measurement": "GI50", "setting": "ZR-75-1", "result": 400, "unit": "nM"}, {"measurement": "GI50", "setting": "SW-620", "result": "> 10000", "unit": "nM"}, {"measurement": "GI50", "setting": "Panc-1", "result": "> 10000", "unit": "nM"}, {"measurement": "Caspase Activity Ratio", "setting": "T-47D [1]", "result": 19.7}, {"measurement": "EC50", "setting": "T-47D [1]", "result": 2140, "unit": "nM"}, {"measurement": "GI50", "setting": "K562", "result": "> 10000", "unit": "nM"}, {"measurement": "GI50", "setting": "PC-3", "result": "> 10000", "unit": "nM"}, {"measurement": "GI50", "setting": "MX-1", "result": 400, "unit": "nM"}, {"measurement": "GI50", "setting": "T-47D [2]", "result": 300, "unit": "nM"}, {"measurement": "GI50", "setting": "DLD-1", "result": 40, "unit": "nM"}, {"measurement": "GI50", "setting": "SK-Br-3", "result": 20, "unit": "nM"}, {"measurement": "GI50", "setting": "NCI-H23", "result": "> 10000", "unit": "nM"}]}
{"smiles": "Clc1ccc(-c2noc(-c3sccc3Cl)n2)c(Cl)c1", "note": "[Example 7, 5-(3-Chloro-thiophen-2-yl)-3-(2,4-dichloro-phenyl)-[1,2,4]-oxadiazole]", "values": [{"measurement": "Caspase Activity Ratio", "setting": "T-47D [1]", "result": 4.1}, {"measurement": "EC50", "setting": "T-47D [1]", "result": 865, "unit": "nM"}]}
{"smiles": "O=[N+]([O-])c1ccc(-c2noc(-c3sccc3Cl)n2)cc1", "note": "[Example 6, 5-(3-Chloro-thiophen-2-yl)-3-(4-nitro-phenyl)-[1,2,4]-oxadiazole]", "values": [{"measurement": "Caspase Activity Ratio", "setting": "T-47D [1]", "result": 3.8}, {"measurement": "EC50", "setting": "T-47D [1]", "result": 5000, "unit": "nM"}]}
